Literature values, collected in patent US9878046B2, “Adverse side-effects associated with administration of an anti-hyaluronan agent and methods for ameliorating or preventing the side-effects” (Halozyme, Inc., priority 2010, dated 2018).

Columns and labels:
[1] = test system: B16 melanoma model; settings: oral administration at 600 mg/kg/d; cited from earlier work
[2] = glucocorticoid, route IV or PO as listed; cited from earlier work

Cc1cc(=O)oc2cc(O)ccc12 [4-MU, 4-Methylumbelliferone]
reduction of metastases [1]: 64%

C[C@]12CCC(=O)C=C1CC[C@@H]1[C@@H]2[C@@H](O)C[C@@]2(C)[C@H]1CC[C@]2(O)C(=O)CO [Hydrocortisone]
Equivalent Potency [2]: 20 mg

C[C@H]1C[C@@H]2[C@H]([C@@H](O)C[C@@]3(C)[C@H]2CC[C@]3(O)C(=O)COC(=O)CCC(=O)O)[C@@]2(C)C=CC(=O)C=C12 [Methylprednisolone sodium succinate]
Equivalent Potency [2]: 4 mg

C[C@]12C=CC(=O)C=C1CC[C@@H]1[C@@H]2[C@@H](O)C[C@@]2(C)[C@H]1CC[C@]2(O)C(=O)CO [Prednisolone]
Equivalent Potency [2]: 5 mg
